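96-well plates; 48 h exposure; 5 concentrations. Endpoints by linear interpolation between flanking doses. Not reached: highest tested concentration assigned. GI50 marks 50% less growth. TGI: total growth inhibition.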
Test system: SK-MEL-28 melanoma
Experiment: growth of human tumour cells (NCI), 48 h

`COC1=CC(=O)C(C2(OC(C)C)OC(=O)C(Cl)=C2Cl)=CC1=O` (stereo not drawn) was tested, and the TGI was > 100 µM.

Test system: SR leukemia
Experiment: growth of human tumour cells (NCI), 48 h

Going from `CC[C@@H](c1ccc(O)c(O)c1)[C@@H](CC)c1ccc(O)c(O)c1` to `CCOC(=O)n1cc(C2=C(c3ccc(OC)c(OC)c3)COC2=O)c2ccccc21`, the GI50 falls from 4170 nM to 29.7 nM (140-fold).

Compared with `O=C1OCC2=C1C(c1cccc(Br)c1)c1cc3c(cc1N2CCO)OCCO3` (stereo not drawn), `C=C1C(=O)O[C@H]2[C@H]1CC/C(CNC(=O)c1cc3ccccc3[nH]1)=C\CC[C@@]1(C)O[C@@H]21` is 2.5-fold higher in GI50: 127 nM for the first, 319 nM for the second.

First: COc1cc(-c2nc3sccn3c2-c2ccnc(NCCNS(=O)(=O)c3ccc(F)cc3)n2)ccc1F
Second: COc1ccc(Cn2c(Br)c3c(c2Br)-c2nc(N)sc2CC3)cc1
The GI50 of the first is 3-fold higher: 2510 nM for the first, 840 nM for the second.

First: Cc1cc(Nc2ccc(C)c(Cl)c2)n2nc(C(F)(F)F)nc2n1
Second: C=C1C[C@H](O)[C@H](Br)C(C)(C)[C@@]12CCC(C)=C(Cl)C2
The GI50 of the first is 78-fold higher: 18400 nM for the first, 237 nM for the second.

`CC[C@@H](c1ccc(O)c(O)c1)[C@@H](CC)c1ccc(O)c(O)c1` and `CCOC(=O)n1cc(C2=C(c3ccc(OC)c(OC)c3)COC2=O)c2ccccc21` cannot be ordered by TGI: > 100 µM for the first, > 100 µM for the second.

First: O=C1OCC2=C1C(c1cccc(Br)c1)c1cc3c(cc1N2CCO)OCCO3 (stereo not drawn)
Second: C=C1C(=O)O[C@H]2[C@H]1CC/C(CNC(=O)c1cc3ccccc3[nH]1)=C\CC[C@@]1(C)O[C@@H]21
The TGI of the first is 9.1-fold higher: 31 µM for the first, 3.4 µM for the second.

`COc1cc(-c2nc3sccn3c2-c2ccnc(NCCNS(=O)(=O)c3ccc(F)cc3)n2)ccc1F` and `COc1ccc(Cn2c(Br)c3c(c2Br)-c2nc(N)sc2CC3)cc1` cannot be ordered by TGI: > 100 µM for the first, > 100 µM for the second.

First: Cc1cc(Nc2ccc(C)c(Cl)c2)n2nc(C(F)(F)F)nc2n1
Second: C=C1C[C@H](O)[C@H](Br)C(C)(C)[C@@]12CCC(C)=C(Cl)C2
The TGI of the first is 5.1-fold higher: 57 µM for the first, 11.1 µM for the second.

Test system: CCRF-CEM leukemia
Experiment: growth of human tumour cells (NCI), 48 h

Going from `CC[C@@H](c1ccc(O)c(O)c1)[C@@H](CC)c1ccc(O)c(O)c1` to `COc1ccc(C(c2cc(OC)c(OC)c(OC)c2)n2cncn2)cc1O` (stereo not drawn), the GI50 falls from 2880 nM to 402 nM (7.2-fold).

First: O=C1OCC2=C1C(c1cccc(Br)c1)c1cc3c(cc1N2CCO)OCCO3 (stereo not drawn)
Second: CCOC(=O)n1cc(C2=C(c3ccc(OC)c(OC)c3)COC2=O)c2ccccc21
The GI50 of the first is 2.1-fold higher: 76.3 nM for the first, 36.7 nM for the second.

First: COc1cc(-c2nc3sccn3c2-c2ccnc(NCCNS(=O)(=O)c3ccc(F)cc3)n2)ccc1F
Second: Cn1cc(-c2cc3c(N4CCN(c5ncc([C@@](C)(N)c6ccc(F)cc6)cn5)CC4)ncnn3c2)cn1
The GI50 of the first is 4.5-fold lower: 643 nM for the first, 2870 nM for the second.

Compared with `COc1ccc(Cn2c(Br)c3c(c2Br)-c2nc(N)sc2CC3)cc1`, `C#Cc1cccc(Nc2nc3cc([N+](=O)[O-])ccc3nc2Nc2ccc(O)cc2)c1` is 2.8-fold higher in GI50: 472 nM for the first, 1330 nM for the second.

First: CN(C)CC(O)c1ccc(/C=C/c2ccc(Cl)cc2)cc1 (stereo not drawn)
Second: C=C1C(=O)O[C@H]2[C@H]1CC/C(CNC(=O)c1cc3ccccc3[nH]1)=C\CC[C@@]1(C)O[C@@H]21
The GI50 of the first is 6-fold higher: 2260 nM for the first, 375 nM for the second.

Going from `Cc1nnc2ccnn2c1C` to `C=C1C[C@H](O)[C@H](Br)C(C)(C)[C@@]12CCC(C)=C(Cl)C2`, the GI50 falls from > 100000 nM to 445 nM.

First: CC[C@@H](c1ccc(O)c(O)c1)[C@@H](CC)c1ccc(O)c(O)c1
Second: COc1ccc(C(c2cc(OC)c(OC)c(OC)c2)n2cncn2)cc1O (stereo not drawn)
The TGI of the first is lower: 9.39 µM for the first, > 100 µM for the second.

`O=C1OCC2=C1C(c1cccc(Br)c1)c1cc3c(cc1N2CCO)OCCO3` (stereo not drawn) and `CCOC(=O)n1cc(C2=C(c3ccc(OC)c(OC)c3)COC2=O)c2ccccc21` cannot be ordered by TGI: > 26.3 µM for the first, > 100 µM for the second.

`COc1cc(-c2nc3sccn3c2-c2ccnc(NCCNS(=O)(=O)c3ccc(F)cc3)n2)ccc1F` and `Cn1cc(-c2cc3c(N4CCN(c5ncc([C@@](C)(N)c6ccc(F)cc6)cn5)CC4)ncnn3c2)cn1` cannot be ordered by TGI: > 100 µM for the first, > 100 µM for the second.

Going from `COc1ccc(Cn2c(Br)c3c(c2Br)-c2nc(N)sc2CC3)cc1` to `C#Cc1cccc(Nc2nc3cc([N+](=O)[O-])ccc3nc2Nc2ccc(O)cc2)c1`, the TGI falls from 15.1 µM to 6.01 µM (2.5-fold).

Going from `CN(C)CC(O)c1ccc(/C=C/c2ccc(Cl)cc2)cc1` (stereo not drawn) to `C=C1C(=O)O[C@H]2[C@H]1CC/C(CNC(=O)c1cc3ccccc3[nH]1)=C\CC[C@@]1(C)O[C@@H]21`, the TGI falls from 4.88 µM to 1.76 µM (2.8-fold).

`Cc1nnc2ccnn2c1C` and `COC1=CC(=O)C(C2(OC(C)C)OC(=O)C(Cl)=C2Cl)=CC1=O` (stereo not drawn) cannot be ordered by TGI: > 100 µM for the first, > 100 µM for the second.

With `C=C1C[C@H](O)[C@H](Br)C(C)(C)[C@@]12CCC(C)=C(Cl)C2` the TGI was 7.92 µM.

Test system: OVCAR-8 ovarian
Experiment: growth of human tumour cells (NCI), 48 h

First: CC[C@@H](c1ccc(O)c(O)c1)[C@@H](CC)c1ccc(O)c(O)c1
Second: COc1ccc(C(c2cc(OC)c(OC)c(OC)c2)n2cncn2)cc1O (stereo not drawn)
The GI50 of the first is 22-fold higher: 25600 nM for the first, 1140 nM for the second.

`O=C1OCC2=C1C(c1cccc(Br)c1)c1cc3c(cc1N2CCO)OCCO3` (stereo not drawn) and `CCOC(=O)n1cc(C2=C(c3ccc(OC)c(OC)c3)COC2=O)c2ccccc21` are within 1.5-fold of each other in GI50: 120 nM for the first, 95.4 nM for the second.

Going from `COc1cc(-c2nc3sccn3c2-c2ccnc(NCCNS(=O)(=O)c3ccc(F)cc3)n2)ccc1F` to `Cn1cc(-c2cc3c(N4CCN(c5ncc([C@@](C)(N)c6ccc(F)cc6)cn5)CC4)ncnn3c2)cn1`, the GI50 rises from 2120 nM to 4110 nM (1.9-fold).

First: Cc1cc(Nc2ccc(C)c(Cl)c2)n2nc(C(F)(F)F)nc2n1
Second: Cc1nnc2ccnn2c1C
The GI50 of the first is lower: 29300 nM for the first, > 100000 nM for the second.

`COc1ccc(Cn2c(Br)c3c(c2Br)-c2nc(N)sc2CC3)cc1` and `C#Cc1cccc(Nc2nc3cc([N+](=O)[O-])ccc3nc2Nc2ccc(O)cc2)c1` are within 1.5-fold of each other in GI50: 3430 nM for the first, 2330 nM for the second.

`CN(C)CC(O)c1ccc(/C=C/c2ccc(Cl)cc2)cc1` (stereo not drawn) and `C=C1C(=O)O[C@H]2[C@H]1CC/C(CNC(=O)c1cc3ccccc3[nH]1)=C\CC[C@@]1(C)O[C@@H]21` are within 1.5-fold of each other in GI50: 1750 nM for the first, 2080 nM for the second.

`C=C1C[C@H](O)[C@H](Br)C(C)(C)[C@@]12CCC(C)=C(Cl)C2` showed a GI50 of 416 nM.

`CC[C@@H](c1ccc(O)c(O)c1)[C@@H](CC)c1ccc(O)c(O)c1` and `COc1ccc(C(c2cc(OC)c(OC)c(OC)c2)n2cncn2)cc1O` (stereo not drawn) cannot be ordered by TGI: > 100 µM for the first, > 100 µM for the second.

First: O=C1OCC2=C1C(c1cccc(Br)c1)c1cc3c(cc1N2CCO)OCCO3 (stereo not drawn)
Second: CCOC(=O)n1cc(C2=C(c3ccc(OC)c(OC)c3)COC2=O)c2ccccc21
The TGI of the first is lower: 1.54 µM for the first, > 100 µM for the second.

`COc1cc(-c2nc3sccn3c2-c2ccnc(NCCNS(=O)(=O)c3ccc(F)cc3)n2)ccc1F` and `Cn1cc(-c2cc3c(N4CCN(c5ncc([C@@](C)(N)c6ccc(F)cc6)cn5)CC4)ncnn3c2)cn1` cannot be ordered by TGI: > 100 µM for the first, > 100 µM for the second.

`Cc1cc(Nc2ccc(C)c(Cl)c2)n2nc(C(F)(F)F)nc2n1` and `Cc1nnc2ccnn2c1C` cannot be ordered by TGI: > 100 µM for the first, > 100 µM for the second.

Going from `COc1ccc(Cn2c(Br)c3c(c2Br)-c2nc(N)sc2CC3)cc1` to `C#Cc1cccc(Nc2nc3cc([N+](=O)[O-])ccc3nc2Nc2ccc(O)cc2)c1`, the TGI falls from 18.4 µM to 6.48 µM (2.8-fold).

First: CN(C)CC(O)c1ccc(/C=C/c2ccc(Cl)cc2)cc1 (stereo not drawn)
Second: C=C1C(=O)O[C@H]2[C@H]1CC/C(CNC(=O)c1cc3ccccc3[nH]1)=C\CC[C@@]1(C)O[C@@H]21
The TGI of the first is 1.8-fold lower: 3.32 µM for the first, 5.87 µM for the second.

First: C=C1C[C@H](O)[C@H](Br)C(C)(C)[C@@]12CCC(C)=C(Cl)C2
Second: COC1=CC(=O)C(C2(OC(C)C)OC(=O)C(Cl)=C2Cl)=CC1=O (stereo not drawn)
The TGI of the first is 5.2-fold lower: 15.3 µM for the first, 78.8 µM for the second.

Test system: NCI-H226 lung
Experiment: growth of human tumour cells (NCI), 48 h

Compared with `CC[C@@H](c1ccc(O)c(O)c1)[C@@H](CC)c1ccc(O)c(O)c1`, `COc1ccc(C(c2cc(OC)c(OC)c(OC)c2)n2cncn2)cc1O` (stereo not drawn) is 15-fold lower in GI50: 21100 nM for the first, 1430 nM for the second.

`O=C1OCC2=C1C(c1cccc(Br)c1)c1cc3c(cc1N2CCO)OCCO3` (stereo not drawn) and `CCOC(=O)n1cc(C2=C(c3ccc(OC)c(OC)c3)COC2=O)c2ccccc21` are within 1.5-fold of each other in GI50: 72 nM for the first, 54.8 nM for the second.

Going from `COc1cc(-c2nc3sccn3c2-c2ccnc(NCCNS(=O)(=O)c3ccc(F)cc3)n2)ccc1F` to `Cc1cc(Nc2ccc(C)c(Cl)c2)n2nc(C(F)(F)F)nc2n1`, the GI50 rises from 1950 nM to 23200 nM (12-fold).

First: CN(C)CC(O)c1ccc(/C=C/c2ccc(Cl)cc2)cc1 (stereo not drawn)
Second: C=C1C(=O)O[C@H]2[C@H]1CC/C(CNC(=O)c1cc3ccccc3[nH]1)=C\CC[C@@]1(C)O[C@@H]21
The GI50 of the first is 4.6-fold higher: 11900 nM for the first, 2580 nM for the second.

In the case of `Cc1nnc2ccnn2c1C`, the GI50 is reported as > 100000 nM.

Compared with `CC[C@@H](c1ccc(O)c(O)c1)[C@@H](CC)c1ccc(O)c(O)c1`, `COc1ccc(C(c2cc(OC)c(OC)c(OC)c2)n2cncn2)cc1O` (stereo not drawn) is higher in TGI: 44 µM for the first, > 100 µM for the second.

First: O=C1OCC2=C1C(c1cccc(Br)c1)c1cc3c(cc1N2CCO)OCCO3 (stereo not drawn)
Second: CCOC(=O)n1cc(C2=C(c3ccc(OC)c(OC)c3)COC2=O)c2ccccc21
The TGI of the first is lower: 0.738 µM for the first, > 100 µM for the second.

Compared with `COc1cc(-c2nc3sccn3c2-c2ccnc(NCCNS(=O)(=O)c3ccc(F)cc3)n2)ccc1F`, `Cc1cc(Nc2ccc(C)c(Cl)c2)n2nc(C(F)(F)F)nc2n1` is higher in TGI: 6.05 µM for the first, > 100 µM for the second.

Compared with `CN(C)CC(O)c1ccc(/C=C/c2ccc(Cl)cc2)cc1` (stereo not drawn), `C=C1C(=O)O[C@H]2[C@H]1CC/C(CNC(=O)c1cc3ccccc3[nH]1)=C\CC[C@@]1(C)O[C@@H]21` is 2.6-fold lower in TGI: 27.3 µM for the first, 10.7 µM for the second.

`Cc1nnc2ccnn2c1C` and `COC1=CC(=O)C(C2(OC(C)C)OC(=O)C(Cl)=C2Cl)=CC1=O` (stereo not drawn) cannot be ordered by TGI: > 100 µM for the first, > 100 µM for the second.
